Our source for the median overall survival values is patent publication US20060142287A1, “Use of a combination of dppe with other chemotherapeutic agents for the treatment of breast cancer” (priority 2002, published 2006).

The subject of the assay is patients with metastatic and/or recurrent breast cancer. Briefly: Phase III clinical trial of DPPE/doxorubicin versus doxorubicin alone, overall survival. Type of assay: in vivo, human. On the procedure: In the treatment of stage I or II breast cancer, the diphenyl compound preferably is used in an amount of about 3 to about 10 mg/kg of patient, administered intravenously over a period of about 30 to about 90 minutes prior to administration of the chemotherapeutic agent(s) and continuing for the period of administration of the chemotherapeutic agent(s). In the specific Phase III clinical trial described herein conducted on patients with metastatic and/or recurrent breast cancer, there was employed 5.3 mg/kg of DPPE in the form of the base (equivalent to 6 mg/kg of DPPE in the form of its hydrochloride), administered intravenously as an aqueous solution thereof over 80 minutes, with the last twenty minutes being accompanied by infusion of the specific chemotherapeutic agent.
The chemotherapy agent active in breast cancer which is employed herein preferably is used in a total amount of about 50 to about 75 mg/M^2 of patient for doxorubicin or epirubicin, about 175 to about 225 mg/M^2 for Taxol and about 75 to about 100 mg/M^2 for Taxotere. In the specific Phase III clinical trial described herein conducted on patients with metastatic and/or recurrent breast cancer, there was employed 60 mg/M^2 of doxorubicin administered over the last 20 minutes of infusion of the DPPE solution.
Patients were treated with doxorubicin (DOX) alone or a combination of doxorubicin and DPPE. […]
The survival time for patients was determined for those patients with metastatic breast cancer receiving no prior chemotherapy treatment in relation to those who had received prior chemotherapy treatment, and for patients that had received no previous treatment type (namely, chemotherapy, radiotherapy and/or hormone treatment) and those who had received previous treatment. The survival times were determined for patients receiving the DPPE/DOX combination and DOX alone.

`COc1cccc2c1C(=O)c1c(O)c3c(c(O)c1C2=O)C[C@@](O)(C(=O)CO)C[C@@H]3O[C@H]1C[C@H](N)[C@H](O)[C@H](C)O1` [DOX, doxorubicin]: the median overall survival (patients with metastatic disease who had estrogen receptor-negative tumors, FIG. 3) is 9.3 months; the median overall survival (patients with metastatic disease who had no previous chemotherapy, DPPE 5.3 mg/kg iv over 80 min, doxorubicin 60 mg/M^2 over last 20 min, FIG. 1) is 16.2 months; the median overall survival (patients with metastatic disease who had no previous treatment (chemotherapy, radiotherapy and/or hormone treatment), FIG. 2) amounted to 15 months.
